From patent US20090142766A1, “METHODS FOR MEASURING THE METABOLISM OF CNS DERIVED BIOMOLECULES IN VIVO” (Washington University in St. Louis, priority 2007, published 2009)

Assays:
[1] = Aβ fractional synthesis and clearance rate in CSF (immunoprecipitation-MS/MS after ^13C6-leucine labeling); format: in vivo, human; conditions: 6 healthy young participants
Source text: Protein production and clearance are important parameters that are tightly regulated and reflect normal physiology as well as disease states. Previous studies of protein metabolism in humans have focused on whole body or peripheral body proteins, but not on proteins produced in the central nervous system (CNS). No methods were previously available to quantify protein production or clearance rates in the CNS of humans. Such a method would be valuable to assess not only Aβ production or clearance rates in humans but also the metabolism of a variety other proteins relevant to diseases of the CNS. In order to address critical questions about underlying AD pathogenesis and Aβ metabolism, a method for quantifying Aβ fractional synthesis rate (FSR) and fractional clearance rate (FCR) in vivo in the CNS of humans was developed.
For each sample of CSF collected, the ratio of labeled to unlabeled Aβ was determined by immunoprecipitation-MS/MS, as described above. […]
The fractional synthesis rate (FSR) was calculated using the standard formula, presented below: […]
The fractional clearance rate (FCR) was calculated by fitting the slope of the natural logarithm of the clearance portion of the labeled Aβ curve, according to the following formula: […]

[2] = Aβ clearance in cortex of APPswe/PS1deltaE9 double transgenic mice; format: in vivo; conditions: cortex, 3, 6 and 18 hr after ^13C6-leucine 200 μg/g i.p.
Protocol: To measure the brain Aβ clearance rate in mice, the method developed to assess ApoE clearance described above in Example 4 was performed in APPswe/PS1deltaE9 double transgenic mice (line #85; Jackson Labs, Bar Harbor, Me.). After a bolus intraperitioneal injection of ^13C6-leucine (200 μg/g), cortical brain tissue was harvested at 3, 6, and 18 hr post-injection (n=3) and lysed (lysis buffer, 1% Triton with PBS). Aβ was immunoprecipitated with an Aβ monoclonal antibody (HJ5.2, directed to Aβ 13-28) and then analyzed by nano-LC-MS/MS as described above. […] The clearance rate of soluble Aβ from cortex of transgenic mice was very similar with that of Aβ from human CSF as described by Bateman et al. 2006, supra.

[3] = cited from earlier work

Which “average fractional clearance rate (FCR)” value ([1]; 24 to 36 hours) does the source give for “Aβ: endogenous amyloid-beta peptide (SEQ ID NO:1) produced in the CNS from amyloid precursor protein” here?
Its value is 8.3 %/hr.

What about the “average fractional synthesis rate (FSR)” value ([1]; slope 6 to 15 hours) of the same substance?
The value was 7.6 %/hr.

What about the “fractional clearance rate (FCR) of soluble cortical Aβ” value [2] of the same substance?
The value was 7.62±1.25 % per hour.

And the “t1/2 in brain interstitial fluid” value [3]?
The value was 1 to 2 h.
